Molecules are shown by their SMILES.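 How tested: cells in 96-well plates exposed to compound for 48 hours at five concentrations. At the GI50, growth is halved.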 The source made the active and inactive calls. No stated cut-off is given here; in the data, active = GI50 up to about 1.1 µM and inactive = higher.

Test systems include OVCAR-5; SK-MEL-2; HOP-62; NCI-H522; COLO 205; HL-60; UACC-62; NCI/ADR-RES; NCI-H23; 786-0; OVCAR-8; HCT-15; SNB-75; ACHN; SNB-19; MDA-MB-435; TK-10; SF-295; SN12C.
What all share (assay): growth of human tumour cells (NCI), 48 h

On to `CC(=O)O/C=C\OC1CCCC1(c1ccccc1)c1ccccc1` (stereo not given), for which the GI50 is 7.13 µM (inactive) in the test on OVCAR-5; 3.57 µM (inactive) in the test on SK-MEL-2; 12.4 µM (inactive) in the test on HOP-62; 10.1 µM (inactive) in the test on NCI-H522; 4.08 µM (inactive) with COLO 205; 1.34 µM (inactive) with HL-60. For the same molecule, the GI50 with UACC-62 was 5.27 µM (inactive); in the test with NCI/ADR-RES, 2.84 µM (inactive); in the test on NCI-H23 it was 2.49 µM (inactive); in the test on 786-0 it was 3.21 µM (inactive); in the test with OVCAR-8, 2.42 µM (inactive); with HCT-15, 2.13 µM. The GI50 in the test on SNB-75 is 3.35 µM (inactive); with ACHN, 2.03 µM (inactive); in the test with SNB-19 it was 11.2 µM (inactive); in the test on MDA-MB-435, 1.96 µM (inactive); in the test on TK-10, 3.48 µM (inactive); with SF-295, 8.11 µM (inactive). The GI50 in the test on SN12C was 3.32 µM (inactive).
`COc1c(-c2cc(C)c(Cl)c(=O)[nH]2)c(O)c(OC)c2occc12`: the GI50 in the test on OVCAR-5, in the test on SK-MEL-2, with HOP-62, in the test on NCI-H522, with COLO 205 and with HL-60 was > 100 µM (inactive) each time. Besides, the GI50 with UACC-62 was 64 µM (inactive); with NCI/ADR-RES, > 100 µM (inactive); in the test with NCI-H23 it was > 100 µM (inactive); in the test with 786-0, > 100 µM (inactive); in the test with OVCAR-8, > 100 µM (inactive); in the test with HCT-15, greater than 100 µM. Further, the GI50 in the test on SNB-75 is 26.7 µM (inactive); in the test on ACHN, > 100 µM (inactive); with SNB-19 it was 96.4 µM (inactive); in the test with MDA-MB-435, > 100 µM (inactive); with TK-10 it was 42.9 µM (inactive); with SF-295, > 100 µM (inactive). In addition, in the test with SN12C, the GI50 was > 100 µM (inactive).
For the molecule `CC(C)=CCC[C@H](C)[C@H]1CC[C@@H](C)c2cc(O)c(C)cc21`, the GI50 was 16.1 µM (inactive) in the test on OVCAR-5; 17 µM (inactive) in the test on SK-MEL-2; 19.1 µM (inactive) in the test with HOP-62; 17.4 µM (inactive) with NCI-H522; 18.3 µM (inactive) with COLO 205; 21.1 µM (inactive) in the test with HL-60. For the same molecule, the GI50 with UACC-62 was 14.5 µM (inactive); in the test with NCI/ADR-RES it was 19.5 µM (inactive); in the test with NCI-H23 it was 18.1 µM (inactive); in the test on 786-0, 18.6 µM (inactive); in the test on OVCAR-8, 18.5 µM (inactive); with HCT-15, 18.3 µM. The GI50 was 19.1 µM (inactive) in the test on SNB-75; 16.8 µM (inactive) with ACHN; 16.6 µM (inactive) in the test with SNB-19; 18.6 µM (inactive) in the test with MDA-MB-435; 18.4 µM (inactive) with TK-10; 16.9 µM (inactive) in the test with SF-295. Also, in the test with SN12C, the GI50 is 15.9 µM (inactive).
On to `Cc1cc(C)c([S@@](=O)O[C@@H]2[C@H]3OC(C)(C)O[C@H]3O[C@@H]2[C@H]2COC(C)(C)O2)c(C)c1`, for which the GI50 in the test with OVCAR-5 is 29.2 µM (inactive); in the test with SK-MEL-2, 31.2 µM (inactive); in the test with HOP-62, 21.5 µM (inactive); with NCI-H522 it was 8.65 µM (inactive); in the test with COLO 205 it was 16.3 µM (inactive); in the test with HL-60, 4.18 µM (inactive). For the same molecule, the GI50 was 22 µM (inactive) in the test with UACC-62; 22 µM (inactive) in the test on NCI/ADR-RES; 31.6 µM (inactive) in the test with NCI-H23; 26.9 µM (inactive) in the test on 786-0; 19.1 µM (inactive) with OVCAR-8; 42.9 µM in the test on HCT-15. The GI50 with SNB-75 is 21.8 µM (inactive); with ACHN, 15.3 µM (inactive); with SNB-19, 40 µM (inactive); in the test with MDA-MB-435 it was 18.2 µM (inactive); in the test on TK-10, 25.5 µM (inactive); with SF-295, 29 µM (inactive). For the same molecule, the GI50 with SN12C is 21 µM (inactive).
Consider `O=c1c2ccccc2nc2n1NC(c1c(Cl)cccc1Cl)N2c1cccc(Cl)c1` (stereo not given), for which the GI50 in the test with OVCAR-5 was 4.54 µM (inactive); in the test on SK-MEL-2 it was 39.1 µM (inactive); in the test with HOP-62, 8.38 µM (inactive); with NCI-H522, 10.4 µM (inactive); with COLO 205 it was 8.53 µM (inactive); in the test with HL-60, > 100 µM (inactive). Moreover, the GI50 in the test with UACC-62 was 5.86 µM (inactive); with NCI/ADR-RES it was 6.44 µM (inactive); with NCI-H23, 14.6 µM (inactive); in the test with 786-0, 2.1 µM (inactive); in the test with OVCAR-8 it was 3.26 µM (inactive); with HCT-15 it was 30.3 µM. Further, the GI50 in the test with SNB-75 was 2.64 µM (inactive); with ACHN it was 3.1 µM (inactive); with SNB-19 it was 4.43 µM (inactive); in the test on MDA-MB-435 it was 9.35 µM (inactive); with TK-10, 7.69 µM (inactive); in the test on SF-295, 9.33 µM (inactive). For the same molecule, the GI50 with SN12C is 4.71 µM (inactive).
In the case of `O=C(O)c1ccccc1CC1Cc2ccccc2C1=O` (stereo not given), the GI50 with OVCAR-5, with SK-MEL-2, with HOP-62, with NCI-H522, in the test with COLO 205 and with HL-60 was > 100 µM (inactive) each time. The GI50 with UACC-62 was > 100 µM (inactive); with NCI/ADR-RES, > 100 µM (inactive); in the test with NCI-H23, > 100 µM (inactive); in the test with 786-0, > 100 µM (inactive); in the test with OVCAR-8, > 100 µM (inactive); with HCT-15, greater than 100 µM. For the same molecule, the GI50 in the test with SNB-75 is 64.7 µM (inactive); in the test on ACHN, > 100 µM (inactive); in the test on SNB-19, > 100 µM (inactive); in the test on MDA-MB-435 it was > 100 µM (inactive); in the test with TK-10, > 100 µM (inactive); in the test with SF-295, > 100 µM (inactive). Also, the GI50 in the test with SN12C was > 100 µM (inactive).
For the molecule `N#Cc1c2c(c(Nc3ccc(Cl)cc3)n3c1nc1ccccc13)CCCC2`, the GI50 with OVCAR-5 is > 100 µM (inactive); with SK-MEL-2 it was > 63.8 µM (inactive); in the test with HOP-62, 31.2 µM (inactive); with NCI-H522 it was 17.5 µM (inactive); in the test with COLO 205, 37.9 µM (inactive); with HL-60, 7.03 µM (inactive). Moreover, the GI50 with UACC-62 is > 100 µM (inactive); in the test with NCI/ADR-RES, 44.1 µM (inactive); in the test on NCI-H23, > 71.3 µM (inactive); in the test on 786-0, 26.9 µM (inactive); with OVCAR-8, 37.6 µM (inactive); with HCT-15, 25.9 µM. For the same molecule, the GI50 in the test with SNB-75 is 28.7 µM (inactive); in the test with ACHN, 18.6 µM (inactive); with SNB-19, 23.1 µM (inactive); in the test on MDA-MB-435, > 100 µM (inactive); with TK-10, 53.1 µM (inactive); in the test with SF-295 it was 28.5 µM (inactive). Also, in the test with SN12C, the GI50 was 65.9 µM (inactive).
Regarding `O=C(Nc1ccc(Cl)cc1)NS(=O)(=O)c1c(-c2ccccc2)oc2ccccc2c1=O`, the GI50 with OVCAR-5 is > 100 µM (inactive); with SK-MEL-2, 45.2 µM (inactive); in the test on HOP-62, 71.6 µM (inactive); with NCI-H522 it was 1.97 µM (inactive); with COLO 205 it was 56.4 µM (inactive); in the test with HL-60 it was 61.7 µM (inactive). Moreover, the GI50 was 1.97 µM (inactive) in the test on UACC-62; 86.3 µM (inactive) in the test with NCI/ADR-RES; 67 µM (inactive) in the test on NCI-H23; > 100 µM (inactive) in the test with 786-0; 59.3 µM (inactive) in the test on OVCAR-8; 50.6 µM in the test with HCT-15. Further, the GI50 in the test with SNB-75 was > 100 µM (inactive); in the test with ACHN it was 27.1 µM (inactive); in the test on SNB-19, > 100 µM (inactive); in the test with MDA-MB-435, 75 µM (inactive); in the test with TK-10, 23 µM (inactive); in the test with SF-295 it was 36.2 µM (inactive). Besides, the GI50 in the test with SN12C is > 100 µM (inactive).
Consider `O=C(n1c(=O)n(-c2ccc([N+](=O)[O-])cc2)c(=O)n1C(=O)C(Cl)(Cl)Cl)C(Cl)(Cl)Cl`, for which the GI50 in the test on OVCAR-5, in the test with SK-MEL-2, in the test on HOP-62, with NCI-H522, with COLO 205 and in the test on HL-60 was > 100 µM (inactive) each time. The GI50 in the test on UACC-62 was > 100 µM (inactive); in the test with NCI/ADR-RES, > 100 µM (inactive); with NCI-H23 it was > 100 µM (inactive); in the test with 786-0 it was > 100 µM (inactive); with OVCAR-8 it was > 100 µM (inactive); in the test on HCT-15 it was greater than 100 µM. Moreover, the GI50 in the test with SNB-75, in the test with ACHN, in the test on SNB-19, in the test on MDA-MB-435, in the test with TK-10 and in the test on SF-295 was > 100 µM (inactive) in each case. Besides, the GI50 with SN12C was > 100 µM (inactive).
`O=c1[nH]c2c(c(=O)[nH]1)SSC2`: the GI50 was 16.6 µM (inactive) with OVCAR-5; 6.44 µM (inactive) with SK-MEL-2; 10.6 µM (inactive) in the test with HOP-62; 17.3 µM (inactive) with NCI-H522; 21.4 µM (inactive) in the test with COLO 205; 1.99 µM (inactive) with HL-60. Moreover, the GI50 with UACC-62 was 3.03 µM (inactive); with NCI/ADR-RES, 2.75 µM (inactive); in the test on NCI-H23, 12.7 µM (inactive); in the test with 786-0, 4.89 µM (inactive); in the test on OVCAR-8, 4.16 µM (inactive); in the test on HCT-15, 27.7 µM. Besides, the GI50 is 17.1 µM (inactive) in the test with SNB-75; 26.5 µM (inactive) in the test on ACHN; 25 µM (inactive) in the test with SNB-19; 2.04 µM (inactive) in the test with MDA-MB-435; 16 µM (inactive) in the test on TK-10; 18.5 µM (inactive) in the test on SF-295. Besides, in the test on SN12C, the GI50 is 2.75 µM (inactive).

These data come from ChEMBL document CHEMBL1201862, “PubChem BioAssay data set” (2004).
